According to patent publication US5164406A, “Method for enhancing transdermal penetration and compositions useful therein” (priority 1989, dated 1992):
Counter-ions that a name gives are not always drawn. Like-named read-outs stand apart in the source and are kept apart here.

Description: Polyoxyethylene stearyl ethers, 3 wt. %
Polyoxypropylene fatty alcohol ethers, 3 wt. %
Deionized water, 94 wt. %
Further, in all cases, unless otherwise noted, the tests were carried out at 37° C. and results were compared to penetration data for the same material in the oil/water emulsion base. Moreover, all percentages of composition components recited are, unless otherwise indicated, weight percent (wt. %) and are based upon the total weight of the composition.
The test method is carried out as follows:
A. Prior to testing, rats are routinely acclimated to the laboratory environment for seven days and gross observations are made to ensure good health of the animals to be tested.
B. Female Sprague Dawley rats (190-240 gm) are selected for testing and identified by cage label and ear tag number.
C. Diffusion Cell Preparation.
1. An O-ring is placed on a standard Franz Diffusion Cell. A stir bar is placed in the receptor compartment. Each cell is filled with approximately 4.5 ml sterile physiologic saline (receptor compartments are calibrated to contain 5.0 ml).
2. The jacketed diffusion cells are maintained at 37° C.±1° (or alternatively desired temperature) using an external water bath and a circulating pump.
D. Skin Section Preparation and Mounting
1. Test animals are sacrificed by intraperitoneal injection of 0.4 ml/100 gm. body weight sodium pentobarital (1 gm/ml).
2. The backs are lightly shaved using electric hair clippers.
3. A section of skin, measuring approximately 8 cm long by 7 cm wide, is removed from the back of each rat using a No. 20 scalpel assuring that the skin section is free from subcutaneous fat.
4. A piece of the skin section is mounted over an O-ring on the diffusion cell, epidermal side facing up. The donor compartment is placed on top of the skin section making a complete seal over the skin. A clamp is used to secure the skin section in place.
5. Air bubbles that collect under the skin are removed by inverting the diffusion cell and tapping it gently. The receptor compartment is filled with sterile physiologic saline to 5.0 ml.
E. Application of Test Materials
1. Test and control materials are applied to the skin using s syringe or spatula. The material is spread evenly and completely over the exposed skin surface using the tip of the syringe/spatula.
1. An HPLC carousel is loaded with microvials. Springs and inserts are placed into the microvials.
2. Receptor compartments are sampled at desired time intervals using a microliter (μl) syringe. The sample (approximately 160 μl) is placed into the insert. The microvial is sealed with a plastic cap.
3. When multiple sampling is required, the receptor compartment is replenished with sterile physiologic saline to maintain a 5.0 ml volume.
Samples are analyzed using standard analytical techniques. The presence of test material in the samples is indicative of transdermal penetration.

[1] = 2% TPL in B with 0.5% imidazole derivative, Table 2, average of multiple determinations
[2] = multiple of average control determination of the same study, 2% TPL in B with 0.5% imidazole derivative, Table 2

Compound	24 hour penetration of tripelennamine HCl (total micrograms base) [micrograms base]	Increase in penetration relative to control	24 hour penetration of tripelennamine HCl (total micrograms base) [1] [micrograms base]	Increase in penetration relative to control [2]	further results
Cc1nccn1Cc1ccccc1 [1-BENZYL-2-METHYL IMIDAZOLE]	463	1.8			
O=C(/C=C/c1ccccc1)n1ccnc1 [N-TRANS-CINNAMOYL]	153	1.8			
CC(C)n1ccnc1 [1-ISOPROPYL IMIDAZOLE]	527	2.9			
CNC[C@H](O)c1cccc(O)c1 [PHE, PHENYLEPHRINE HCL, reference compound]					24 hour penetration (total micrograms base): 266 micrograms base
Cc1c[nH]cn1 [4-METHYL IMIDAZOLE]			477	3.9	
1-cyanoethyl-2-phenylimidazole [1-CYANOETHYL-2-PHENYL IMIDAZOLE]			310	2.6	
CC(C)Cc1ccc(C(C)C(=O)O)cc1 (stereo not shown) [IBU, IBUPROFEN, reference compound]					24 hour penetration (total micrograms base) (B + 5% drug + 0.5% imidazole (IMI), Table 3): 378.0 micrograms base; 24 hour penetration (total micrograms base) (control: 5% of the drug alone in B, Table 3): 181.5 micrograms base; Increase in penetration relative to control (multiple of average control determination, B + 5% drug + 0.5% IMI, Table 3): 2.1
OCc1c[nH]cn1 [4-HYD[…], 4-hydroxymethyl imidazole]			224	3.2	
Cn1ccnc1 [1-METHYL IMIDAZOLE]			728	3.0	
N[C@H](Cc1c[nH]cn1)C(=O)O [D-HISTIDINE, D-histidine]	197	2.8			
NNC(=O)c1c[nH]cn1 [4-CARBOXYLIC ACID HYDRAZIDE IMIDAZOLE]			143	1.7	
Cc1ncc[nH]1 [2-METHYL IMIDAZOLE]	615	2.6			
NCCCn1ccnc1 [N-(3-AMINOPROPYL) IMIDAZOLE, N-(3-aminopropyl)imidazole]	457	2.5			
c1ccc2c(CC3=NCCN3)cccc2c1 [NAP, NAPHAZOLINE HCL, reference compound]					24 hour penetration (total micrograms base): 161 micrograms base; Penetration enhanced by imidazole: 480%
CC(C)=CCCC(C)=CCn1ccnc1 [1-(3,7-dimethyl-2,6-octadienyl) imidazole]	479	2.6			
CCCCCCCCCCCCn1ccnc1 [1-DODECYL IMIDAZOLE]	479	4.0			
Cc1ccc(/C(=C\CN2CCCC2)c2ccccn2)cc1 [TRP, TRIPROLIDINE HCL, reference compound]					24 hour penetration (total micrograms base): 180 micrograms base
COc1ccc2c(c1)[C@]13CCCC[C@@H]1[C@H](C2)N(C)CC3 [DEX, DEXTRO[…], HBR, reference compound]					24 hour penetration (total micrograms base) (B + 2% DEX + 0.5% IPM + 0.5% IMI, Table 3 Study VIII): 360 micrograms base; 24 hour penetration (total micrograms base) (control: 2% of the drug alone in B, Table 3): 124 micrograms base; Increase in penetration relative to control (multiple of average control determination, B + 2% DEX + 0.5% IPM + 0.5% IMI, Table 3 Study VIII): 2.9
c1ccc(-c2c[nH]cn2)cc1 [4-PHENYL IMIDAZOLE]			368	3.0	
Cc1nc[nH]c1CO [4-(HYDROXYMETHYL) 5-METHYL IMIDAZOLE]	149	1.2			
CCCCCCCCCCCCCCCCCc1ncc[nH]1 [2-[…]]			358	1.5	
CC(C)NCC(O)c1cc(O)cc(O)c1 (stereo not shown) [MET, METAPROTERENOL SULFATE, reference compound]					24 hour penetration (total micrograms base): 47.6 micrograms base
